Results on seven molecules are retold here after ChEMBL document CHEMBL5725765, “Inhibitors of lysine specific demethylase-1” (2017).

The assay has as its target Lysine-specific histone demethylase 1A (Homo sapiens, UniProt O60341). Nature of the assay: In Vitro Enzyme Inhibition Assay: This assay determines the ability of a test compound to inhibit LSD1 demethylase activity.
On to `Cn1c(N2CCC(N)CC2)nc(-c2ccc(O)cc2)c(-c2ccc3c(ccn3C)c2)c1=O`, for which the IC50 is > 10000 nM.
For the molecule `Cn1c(N2CCC(N)CC2)nc(-c2ccc(C#N)c(F)c2)c(-c2ccc3c(cnn3C)c2)c1=O`, the IC50 was < 100 nM.
The value for `Cn1c(N2CCC(N)CC2)nc(-c2ccc(C#N)c(F)c2)c(-c2ccc(C(F)(F)F)nc2)c1=O` was < 100 nM; that for `Cn1c(N2CCC(N)CC2)nc(-c2ccc(C#N)c(F)c2)c(-c2ccc3cc[nH]c3c2)c1=O` was < 100 nM.
Next, `Cn1cc2cc(-c3c(-c4ccc(C#N)cc4)nc(N4CCC(N)CC4)n(C)c3=O)ccc2n1`: < 100 nM; `Cn1c(N2CCC(N)CC2)nc(-c2ccc(C#N)cc2)c(-c2ccc3c(cnn3C)c2)c1=O`: < 100 nM.
As to `Cn1c(N2CCC(N)CC2)nc(-c2ccc(C#N)c(F)c2)c(-c2ccc3c(ccn3C)c2)c1=O`, the IC50 is < 100 nM.

As a reminder, the IC50 is the concentration needed to halve the response being measured. Higher therefore signals weaker potency in that assay.
